Data: BigSolDB 2.1

CCCOC(=O)c1cc(O)c(O)c(O)c1
solubility (mole fraction)
Settings | in acetone | in ethanol | in ethyl acetate | in isobutanol | in isopropanol | in methanol | in methyl acetate | in n-butanol | in n-propanol
293.15 K | 0.291 | 0.182 | 0.222 | 0.189 | 0.253 | 0.226 | 0.244 | 0.243 | 0.264
298.15 K | 0.311 | 0.201 | 0.24 | 0.209 | 0.273 | 0.242 | 0.264 | 0.259 | 0.283
303.15 K | 0.33 | 0.222 | 0.258 | 0.229 | 0.293 | 0.258 | 0.285 | 0.275 | 0.302
308.15 K | 0.35 | 0.244 | 0.276 | 0.25 | 0.314 | 0.276 | 0.306 | 0.293 | 0.321
313.15 K | 0.369 | 0.266 | 0.295 | 0.272 | 0.336 | 0.295 | 0.329 | 0.312 | 0.34
318.15 K | 0.387 | 0.288 | 0.314 | 0.295 | 0.359 | 0.316 | 0.351 | 0.333 | 0.36
323.15 K | 0.404 | 0.311 | 0.333 | 0.319 | 0.383 | 0.339 | 0.375 | 0.356 | 0.382
328.15 K | 0.412 | 0.323 | 0.343 | 0.331 | 0.396 | 0.351 | 0.39 | 0.368 | 0.394
333.15 K | 0.419 | 0.334 | 0.353 | 0.344 | 0.409 | 0.363 | 0.402 | 0.381 | 0.406
